Here are results for five molecules from patent US20170079979A1, “THERAPY FOR SOLID TUMORS” (Children's Hospital Medical Center, priority 2014, published 2017).

One assay has as its system H1703 cells. The experiment in a line: H1703 lung sarcoma cell survival with EGF and sunitinib (FIG. 3). In kind it is cell-based. As to conditions: concomitant inhibition of Dusp-1 by BCI and c-Fos by either curcumin or DFC (combination), FIG. 3 right panel. On the procedure: H1703 cell line was derived from the lung sarcoma, which is driven by PDGFRA as this cell line has amplified the PDGFRA. This group of patients is treated with sunitinib.

For another assay, the system named is BaF3-BCR-ABL cells. As to conditions: Imatinib combined with BCI, cited from earlier work.
The test system of a further assay is AU565 cells. The experiment in a line: AU565 breast cancer cell survival with NRG1 and lapatinib (FIG. 1). In kind it is cell-based. As to conditions: for cell survival: concomitant inhibition of Dusp-1 by BCI and c-Fos by either curcumin or DFC (combination), FIG. 1 right panel. On the procedure:
AU565 cell line was established from the malignant pleural effusion of the mammary gland, which overexpresses the HER2. This class of tumors is treated by lapatinib. This treatment is not curative and relapse is common because cancer stem cells are not responsive to the treatment.

The subject of a further assay is HCC827 cells. The experiment in a line: HCC827 lung cancer cell survival with HGF and erlotinib (FIG. 2). In kind it is cell-based. The note with it: concomitant inhibition of Dusp-1 by BCI and c-Fos by either curcumin or DFC (combination), FIG. 2 right panel. An excerpt: HCC827 cell line was derived from the lung adenocarcinoma. This lung adenocarcinoma has an acquired mutation in the EGFR tyrosine kinase domain (E746-A750 deletion). […] Most patients develop resistance by acquiring gatekeeper mutation the kinase domain and single TKI treatment is not curative because cancer stem cells are refractory to the treatment. In addition overexpression of growth factor HGF leading to activation of MET is a more frequent way of bypassing the EGFR mediated survival in this tumor model. Besides, cancer stem cells in the presence of growth factor are not addicted to the oncogene.

Another assay deals with RT4 cells. The experiment in a line: RT4 bladder cancer cell survival with EGF and PLX4032 (FIG. 4). As to conditions: FIG. 4 right panel; for cell survival: concomitant inhibition of Dusp-1 by BCI and c-Fos by either curcumin or DFC (combination). Type of assay: cell-based. On the procedure:
To determine the effect of c-Fos and Dusp-1 inhibition with the tyrosine kinase inhibitor PLX4032, RT4 cells were assayed, as a model bladder cancer, shown in FIG. 4. This cell line was derived from bladder cancer patients, which has amplification of EGFR.

The subject of a further assay is parental BaF3 cells. The note with it: cited from earlier work; for effect of the drug combination: Imatinib combined with BCI.
In assay [1] the test system is leukemia initiating cells (LIC). The note with it: cited from earlier work.

Structures are written as SMILES. Counter-ions that a name gives are not always drawn.

On to `O=C1/C(=C/c2ccccc2)C(NC2CCCCC2)c2ccccc21` (centres unmarked) [BCI, (E)-2-benzylidene-3-(cyclohexylamino)-2,3-dihydro-1H-inden-1-one], for which the cell survival result with H1703 cells, with AU565 cells, in the assay with HCC827 cells and in the assay with RT4 cells was “completely suppresses the cell survival” throughout. Also, the “effect of the drug combination” value with BaF3-BCR-ABL cells (BCR-ABL positive cells) and with parental BaF3 cells was “no effect” each time. Moreover, in the assay with BaF3-BCR-ABL cells (BaF3-BCR-ABL cells with c-Fos knockdown), the “sensitivity in cell proliferation assay” value is reported as “fully sensitive”.
Turning to `COc1cc(/C=C/C(=O)CC(=O)/C=C/c2ccc(O)c(OC)c2)ccc1O` [curcumin], the cell survival entry in the assay on H1703 cells, in the assay on AU565 cells, in the assay on HCC827 cells and in the assay on RT4 cells was “completely suppresses the cell survival” in each case. Further, in the assay with RT4 cells (combination with BCI), the “relative potency of the BCI combination (curcumin versus DFC)” value is recorded as “more potent”.
As to `COc1cc(/C=C/C(=O)C(=Cc2ccc(F)c(F)c2)C(=O)/C=C/c2ccc(O)c(OC)c2)ccc1O` [DFC, difluorinated curcumin], the cell survival result with H1703 cells, in the assay with AU565 cells and in the assay on RT4 cells was “completely suppresses the cell survival” in each case.
For `CS(=O)(=O)CCNCc1ccc(-c2ccc3ncnc(Nc4ccc(OCc5cccc(F)c5)c(Cl)c4)c3c2)o1` [lapatinib], in the assay with AU565 cells (addition of NRG1, lapatinib), the “TKI response on addition of growth factor” value is reported as “confer resistance”.
As to `Cc1ccc(NC(=O)c2ccc(CN3CCN(C)CC3)cc2)cc1Nc1nccc(-c2cccnc2)n1` [Imatinib, Imatinib mesylate], in the assay on parental BaF3 cells, the “effect of the drug combination” value was “no effect”. Moreover, the survival and apoptosis result in the assay with parental BaF3 cells (inhibition of c-Fos and Dusp-1 together with Imatinib treatment) was “no effect”. The “survival of patients with leukemia” value in assay [1] is recorded as “improved the survival”. Also, the “elimination of leukemia initiating cells (LIC)” value in assay [1] (patients with leukemia) is given as “did not eliminate”.
